{"source": "ChEMBL document CHEMBL6177945", "about": "“Dyad System of BOAHY-BODIPY Conjugates as Novel Photoswitchable Photosensitizers for Photodynamic Therapy” (J Med Chem, 2025)", "key": {"HeLa [1]": {"system": "HeLa", "assay": "Photocytotoxicity against human HeLa cells at 10 uM incubated with compound for 30 mins under 365 nm UV light for 5 mins followed white LED exposure for 10 mins and measured after 20 hrs post-illumination by MTT assay", "type": "functional, cell-based", "conditions": "time 20.75 hrs"}, "HeLa [2]": {"system": "HeLa", "assay": "Cytotoxicity against human HeLa cells up to 100 uM incubated for 4 hrs by MTT assay", "type": "toxicity, cell-based"}, "[3]": {"assay": "Induction of type-1 ROS generation in PBS assessed as increase in superoxide anion radical by measuring increase in DHR123 fluorescence intensity at 10 uM irradiated with 450 to 800 nm 40.8 mW cm^-2 light up to 10 mins by DHR123 fluorescence based analysis", "type": "functional"}, "HeLa [4]": {"system": "HeLa", "assay": "Photocytotoxicity in human HeLa cells at 10 uM incubated for 30 mins irradiated with 450 to 800 nm 40.8 mW cm^-2 white LED light and measured after 20 hrs by MTT assay", "type": "functional, cell-based", "conditions": "time 20.5 hrs"}, "[5]": {"assay": "Induction of type-II ROS generation in PBS assessed as increase in singlet oxygen by measuring ABDA absorption at 20 uM irradiated with 450 to 800 nm 40.8 mW cm^-2 light up to 10 mins by ABDA based UV-vis absorption spectrophotometric analysis", "type": "functional"}, "[6]": {"assay": "Phototoxicity in human HeLa cells assessed as cell viability under white LED light for 10 mins", "type": "functional, cell-based", "conditions": "light or radiation study"}, "HeLa [7]": {"system": "HeLa", "assay": "Photocytotoxicity against human HeLa cells at 10 uM incubated with compound for 30 mins under 365 nm UV light for 1 mins and measured after 20 hrs post-illumination by MTT assay", "type": "functional, cell-based", "conditions": "time 20.51 hrs"}, "[8]": {"assay": "Induction of type-1 ROS generation in PBS assessed as increase in superoxide anion radical by measuring increase in DHR123 fluorescence intensity under white lamp exposure for 10 mins and UV light for 15 mins followed by white lamp exposure for another 10 mins by DHR123 fluorescence based analysis", "type": "functional", "conditions": "time 35.0 min"}, "[9]": {"assay": "Induction of type-II ROS generation in PBS assessed as increase in singlet oxygen by measuring ABDA absorption under white lamp exposure for 10 mins and UV light for 15 mins followed by white lamp exposure for another 10 mins by ABDA based UV-vis absorption spectrophotometric analysis", "type": "functional", "conditions": "time 35.0 min"}, "HeLa [10]": {"system": "HeLa", "assay": "Upregulation of ROS generation related proteins in human HeLa cells under white light irradiation exposure by GO analysis", "type": "functional, cell-based"}, "HeLa [11]": {"system": "HeLa", "assay": "Upregulation of cellular redox metabolism related proteins in human HeLa cells under white light irradiation exposure by GO analysis", "type": "functional, cell-based"}, "HeLa [12]": {"system": "HeLa", "assay": "Photocytotoxicity against human HeLa cells at 10 uM incubated with compound for 30 mins under 365 nm UV light for 1 mins followed white LED exposure for 2 mins and measured after 20 hrs post-illumination by MTT assay", "type": "functional, cell-based", "conditions": "time 20.55 hrs"}}, "note": "pIC50: −log10 of the molar value. Active and inactive are the calls of the source. No cut-off for these calls is given here."}
{"smiles": "CC1=C(/C=[N+]2\\N=C(c3ccccc3)O[B-]2(F)F)C(C)=[N+]2C1=C(c1ccccc1)c1c(C)c(/C=[N+]3\\N=C(c4ccccc4)O[B-]3(F)F)c(C)n1[B-]2(F)F", "values": [{"measurement": "Activity", "setting": "HeLa [1]", "value": "Active"}, {"measurement": "Activity", "setting": "HeLa [2]", "value": "Non-toxic"}, {"measurement": "Activity", "setting": "[3]", "value": "Active"}]}
{"smiles": "COc1ccc(C2=N/[N+](=C\\c3c(C)c4n(c3C)[B-](F)(F)[N+]3=C(C)C=C(C)C3=C4c3ccccc3)[B-](F)(F)O2)cc1", "values": [{"measurement": "Activity", "setting": "HeLa [4]", "value": "Active"}, {"measurement": "Activity", "setting": "HeLa [2]", "value": "Non-toxic"}, {"measurement": "Activity", "setting": "[5]", "value": "Not active; Slight Changes In Abda Absorption Observed"}, {"measurement": "Activity", "setting": "[3]", "value": "Active"}]}
{"smiles": "CC1=C(I)C(C)=[N+]2C1=C(c1ccccc1)c1c(C)c(/C=[N+]3\\N=C(c4ccccc4)O[B-]3(F)F)c(C)n1[B-]2(F)F", "values": [{"measurement": "pIC50", "setting": "[6]", "value": 5.47}, {"measurement": "Activity", "setting": "HeLa [7]", "value": "Active"}, {"measurement": "Activity", "setting": "[5]", "value": "Active"}, {"measurement": "Activity", "setting": "[3]", "value": "Active"}]}
{"smiles": "COc1ccc(C2=N/[N+](=C\\C3=C(C)C4=C(c5ccccc5)c5c(C)c(/C=[N+]6\\N=C(c7ccc(OC)cc7)O[B-]6(F)F)c(C)n5[B-](F)(F)[N+]4=C3C)[B-](F)(F)O2)cc1", "values": [{"measurement": "Activity", "setting": "HeLa [1]", "value": "Active"}, {"measurement": "Activity", "setting": "HeLa [2]", "value": "Non-toxic"}]}
{"smiles": "COc1ccc(C2=N/[N+](=C/c3c(C)c4n(c3C)[B-](F)(F)[N+]3=C(C)C=C(C)C3=C4c3ccccc3)[B-](F)(F)O2)cc1", "values": [{"measurement": "Activity", "setting": "[8]", "value": "Active"}, {"measurement": "Activity", "setting": "[9]", "value": "Active"}, {"measurement": "Activity", "setting": "HeLa [1]", "value": "Active"}]}
{"smiles": "CC1=CC(C)=[N+]2C1=C(c1ccccc1)c1c(C)c(/C=[N+]3/N=C(c4ccc([N+](=O)[O-])cc4)O[B-]3(F)F)c(C)n1[B-]2(F)F", "values": [{"measurement": "Activity", "setting": "HeLa [1]", "value": "Active"}]}
{"smiles": "CC1=CC(C)=[N+]2C1=C(c1ccccc1)c1c(C)c(/C=[N+]3/N=C(c4ccccc4)O[B-]3(F)F)c(C)n1[B-]2(F)F", "values": [{"measurement": "Activity", "setting": "[8]", "value": "Active"}, {"measurement": "Activity", "setting": "[9]", "value": "Active"}, {"measurement": "Activity", "setting": "HeLa [1]", "value": "Active"}]}
{"smiles": "CC1=CC(C)=[N+]2C1=C(c1ccccc1)c1c(C)c(/C=[N+]3\\N=C(c4ccccc4)O[B-]3(F)F)c(C)n1[B-]2(F)F", "values": [{"measurement": "Activity", "setting": "HeLa [4]", "value": "Active"}, {"measurement": "Activity", "setting": "HeLa [2]", "value": "Non-toxic"}, {"measurement": "Activity", "setting": "[5]", "value": "Not active; Slight Changes In Abda Absorption Observed"}, {"measurement": "Activity", "setting": "[3]", "value": "Active"}]}
{"smiles": "COc1ccc(C2=N/[N+](=C\\c3c(C)c4n(c3C)[B-](F)(F)[N+]3=C(C)C(I)=C(C)C3=C4c3ccccc3)[B-](F)(F)O2)cc1", "values": [{"measurement": "Activity", "setting": "HeLa [10]", "value": "Active"}, {"measurement": "Activity", "setting": "HeLa [11]", "value": "Active"}, {"measurement": "Activity", "setting": "HeLa [12]", "value": "Active"}, {"measurement": "Activity", "setting": "[3]", "value": "Active"}]}
{"smiles": "CC1=C(I)C(C)=[N+]2C1=C(c1ccccc1)c1c(C)c(/C=[N+]3\\N=C(c4ccc([N+](=O)[O-])cc4)O[B-]3(F)F)c(C)n1[B-]2(F)F", "values": [{"measurement": "Activity", "setting": "[3]", "value": "Active"}]}
{"smiles": "CC1=CC(C)=[N+]2C1=C(c1ccccc1)c1c(C)c(/C=[N+]3\\N=C(c4ccc([N+](=O)[O-])cc4)O[B-]3(F)F)c(C)n1[B-]2(F)F", "values": [{"measurement": "Activity", "setting": "HeLa [2]", "value": "Non-toxic"}, {"measurement": "Activity", "setting": "[5]", "value": "Not active; Slight Changes In Abda Absorption Observed"}, {"measurement": "Activity", "setting": "[3]", "value": "Active"}]}
